Experimental data taken from patent US20260184714A1, “SMALL MOLECULE MODULATORS OF PAR2 AND USES THEREOF” (PARMEDICS, INC., priority 2022, published 2026).
Where two headings read alike, the source gives them in different places.

What was measured:
[1] = test system: airway hyperresponsiveness induced by Alternaria alternata; assay: Alternaria alternata-induced asthma model, total airway resistance to methacholine (FLEXIVENT); assay type: in vivo, mouse; settings: mice, Alternaria alternata intranasally three times over 8 days, with Compound I-1
Experimental: Alternaria alternata is a fungal allergen that activates PAR2 in the airways to promote inflammation and bronchoconstriction. Compound I-1 was evaluated in vivo to assess whether it can be used to treat airway hyperresponsiveness induced by Alternaria alternata. FIG. 3 summarizes the results for this in vivo study.
Alternaria alternata or saline (A data points in FIG. 3) were administered intranasally in a mouse asthma model three times over an 8 day period, in the presence (Q data points in FIG. 3) or absence (o data points in FIG. 3) of Compound I-1. Total airway resistance in response to increasing amounts of methacholine was monitored using the FLEXIVENT® (Scireq, Quebec, Canada) system.

[2] = biological target: T1, protease-activated receptor-2 (PAR2) (Homo sapiens, UniProt P55085); assay: xCELLigence real time cellular analysis (RTCA) of PAR2 antagonism; assay type: cell-based; settings: 16HBE14o- cells; 5 min pre-incubation with 300 nM-10 μM compound, then 300 nM 2AT or 30 nM trypsin; high concentrations
T1 construct: a human bronchial epithelial cell line that naturally expressed PAR2; endogenous in cells; host or cells: 16HBE14o- human bronchial epithelial cells
T1 sequence (P55085 26-397): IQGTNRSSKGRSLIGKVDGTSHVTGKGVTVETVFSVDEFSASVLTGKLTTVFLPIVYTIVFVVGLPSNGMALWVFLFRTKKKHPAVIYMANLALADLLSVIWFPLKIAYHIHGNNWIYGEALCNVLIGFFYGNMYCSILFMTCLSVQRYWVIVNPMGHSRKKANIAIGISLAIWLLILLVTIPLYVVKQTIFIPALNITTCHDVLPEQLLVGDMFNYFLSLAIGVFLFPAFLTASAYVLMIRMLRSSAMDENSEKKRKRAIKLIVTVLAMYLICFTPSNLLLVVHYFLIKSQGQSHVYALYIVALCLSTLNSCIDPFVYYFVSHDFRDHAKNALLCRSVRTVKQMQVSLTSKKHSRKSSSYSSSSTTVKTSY
Experimental: (§1) Compound I-1 (labelled as “C I-1” in FIGS. 1A-1D) was evaluated for its ability to antagonize protease-activated receptor-2 (PAR2) in several cellular assays using a human bronchial epithelial cell line that naturally expressed PAR2 (16HBE14o− cells; see FIG. 1A-1D).
In the first assay to detect an in vitro physiological response, the xCELLigence real time cellular analysis (RTCA) was used.
Following overnight growth, varying concentrations of Compound I-1 was added to individual wells (in quadruplicate) in final concentrations of 300 nM, 1 μM, 3 μM and 10 μM. […] The upward deflection and recovery of the Cell Index shown in response to control 300 nM 2AT (FIG. 1A) or 30 nM (FIG. 1B) represents a typical EC50 response.

[3] = In vivo pharmacokinetics (plasma concentration by LC-MS/MS, non-compartmental analysis); settings: mouse; for concentration at 24 h: read-out: Clast (24 h); for Cmax: read-out: Co/Cmax
Experimental: Compound I-1 was evaluated for its plasma stability and oral bioavailability. Mice were fasted overnight before dosing, with water provided ad libitum throughout the study. Three animals are dosed via gavage needle for oral administration at 10 mg/kg (10 mL/kg), via tail vein injection for intravenous administration at […], and via injection in the lower right quadrant of the abdomen for intraperitoneal injections at 10 mg/kg (10 mL/kg). Blood samples (25-30 μL per sample) were taken via saphenous or submandibular vein at 5, 15, 30 min, and 1, 2, 4, 6, 8, 24 h post dose and drug concentration determined by LC-MS/MS. Plasma concentrations were then graphed vs time and pharmacokinetic parameters (terminal half life, t1/2; initial plasma concentration, Co; area under the curve (AUC); volume of distribution at steady-state. Vss; total plasma clearance CLp; mean residence time, MRT; maximum plasma concentration Cmax; time to reach Cmax, tmax; and bioavailability, F) were determined using non-compartmental analysis.

[4] = test system: stress-induced migraine-like pain; assay: Stress-induced migraine model, facial withdrawal response after SNP; assay type: in vivo, mouse; settings: mice, restraint stress for 3 days, 14-day recovery, then SNP
Experimental: Migraine headaches are characterized by sensitivity of pain-sensing neurons in the dura mater to innocuous stimuli, e.g., the nitric oxide donor, sodium nitroprusside (SNP). Compound I-1 was evaluated in vivo using a mouse migraine model to assess whether it can be used to treat stress-induced migraine-like pain. FIG. 2 summarizes the results for this in vivo study.
Mice were subjected to restraint stress for 3 days (□ and ⋄ data points in FIG. 2) or left unrestrained (∘ and Δ data points in FIG. 2), resulting in a significant facial withdrawal response up to 3 days post-stress.

[5] = biological target: T1, protease-activated receptor-2 (PAR2); assay: In Cell Western of pERK 1/2 (β-arrestin/MAPK signaling); assay type: cell-based; settings: 16HBE14o- cells; ICW of pERK 1/2
Experimental: as §1
(§2) It is known that two primary signaling outcomes of PAR2 activation are the initiation of Gq/Ca^2+ and β-arrestin/MAPK signaling. To determine whether the observed in vitro physiologic antagonism represented partial antagonism or intracellular signaling dependent antagonism, digital imaging microscopy was used to assay intracellular Ca^2+ changes ([Ca^2+ ]i; […]) as a measure of Gq/Ca^2+ signaling and an In Cell Western approach for measuring phosphorylation of extracellular regulated kinase ½ (ICW of pERK ½; see FIG. 1D) as an assay for β-arrestin/MAPK signaling. […] It is concluded that Compound I-1 is a β-arrestin/MAPK biased PAR2 antagonist.

[6] = biological target: T1, protease-activated receptor-2 (PAR2); assay: Digital imaging microscopy of intracellular Ca2+ changes (Gq/Ca2+ signaling); assay type: cell-based; settings: 16HBE14o- cells; [Ca2+]i by digital imaging microscopy
Experimental: as §1, §2

CC(C)C[C@@H]1C(=O)N2C(CN(CC3CCNCC3)C(=O)[C@@H]2CC(C)C)N1C(=O)c1ccco1 (stereo partly drawn) [Compound I-1, 4-(((2R,5S)-1-(furan-2-carbonyl)-2,5-diisobutyl-3,6-dioxohexahydroimidazolo [1,2-a]pyrazin-7(1H)-yl)methyl)piperidin-1-ium chloride]
Total airway resistance in response to increasing methacholine [1]: has promise as a therapeutic for reducing allergen-induced asthma attacks
Cell Index response to PAR2 activation (antagonism) [2]: reduced the response
F ([3]; IP, 10 mg/kG): 89.8%
F ([3]; Oral, 10 mg/kG): 84.7%
AUC ([3]; plasma, IP, 10 mg/kG): 2670 ng·h/mL
Tmax ([3]; plasma, IP, 10 mg/kG): 0.25 h
half-life ([3]; plasma, IP, 10 mg/kG): 7.97 h
concentration at 24 h ([3]; plasma, IP, 10 mg/kG): 12.9 ng/mL
Cmax ([3]; plasma, IP, 10 mg/kG): 689 ng/mL
AUC ([3]; plasma, IV, 2 mg/kG): 595 ng·h/mL
half-life ([3]; plasma, IV, 2 mg/kG): 7.9 h
clearance ([3]; plasma, IV, 2 mg/kG, read-out: CLp): 56.6 mL/min/kg
concentration at 24 h ([3]; plasma, IV, 2 mg/kG): 1.15 ng/mL
Cmax ([3]; plasma, IV, 2 mg/kG): 1330 ng/mL
Vd ([3]; plasma, IV, 2 mg/kG, read-out: Vss): 8.29 L/kg
AUC ([3]; plasma, Oral, 10 mg/kG): 2520 ng·h/mL
Tmax ([3]; plasma, Oral, 10 mg/kG): 0.5 h
half-life ([3]; plasma, Oral, 10 mg/kG): 7.45 h
concentration at 24 h ([3]; plasma, Oral, 10 mg/kG): 11.4 ng/mL
Cmax ([3]; plasma, Oral, 10 mg/kG): 632 ng/mL
Facial withdrawal response after SNP [4]: eliminated
Antagonism of the β-arrestin/MAPK-signaling pathway [5]: significant antagonism
Antagonism at the Gq/Ca2+ signaling pathway [6]: not observed
